{"source": "patent US20020192834A1", "about": "“Analysis of caffeine” (priority 2001, published 2002)", "origin": "cited, not measured here", "details": "after consuming caffeine in coffee; background statement"}
{"smiles": "Cn1c(=O)c2c(ncn2C)n(C)c1=O", "note": "[caffeine, trimethylxanthine]", "values": [{"measurement": "half-life of caffeine", "value": "about 6 hours"}]}
